These results are taken from ChEMBL document CHEMBL1151804, “Antisense-guided isolation and structure elucidation of pannomycin, a substituted cis-decalin from Geomyces pannorum” (2009).

For assay [1], the system named is Staphylococcus aureus. As to the kind of experiment: Antibacterial activity against methicillin-resistant Staphylococcus aureus after 20 hrs. Format: functional.
In a further assay the test system is Escherichia coli. Briefly: Antibacterial activity against Escherichia coli up to 1.4 mM after 20 hrs. Format: functional, organism-based.
Assay [2] deals with Staphylococcus aureus. Briefly: Antibacterial activity against Staphylococcus aureus Smith after 20 hrs. The class given is functional.
The next assay concerns Streptococcus pneumoniae. Briefly: Antibacterial activity against Streptococcus pneumoniae up to 1.4 mM after 20 hrs. Format: functional, organism-based.
The subject of a further assay is Haemophilus influenzae. Briefly: Antibacterial activity against Haemophilus influenzae up to 1.4 mM after 20 hrs. The class given is functional, organism-based.
A further assay deals with Bacillus subtilis. As to the kind of experiment: Antibacterial activity against Bacillus subtilis after 20 hrs. Format: functional.
Another assay relates to Candida albicans. As to the kind of experiment: Antifungal activity against Candida albicans up to 1.4 mM after 24 hrs. Format: functional, organism-based.
A further assay has as its system Enterococcus faecalis. Briefly: Antibacterial activity against Enterococcus faecalis after 20 hrs. The class given is functional.

The MIC is the least concentration at which growth counts as inhibited.

≈ marks a conversion by molar mass, not a printed value. Calls of active or inactive are those of the source. The calls are words filed in the database; no cut-off is given here.

In the assay with Staphylococcus aureus [1], `C/C=C/[C@@H]1C(C)=C[C@@H]2CC[C@@H](C)C[C@@H]2[C@]1(C)C(=O)C1=C(O)C(CO)N(C)C1=O` (some centres undefined) returned an MIC of 12 µM (≈ 4.65 µg/mL).

In the assay with Staphylococcus aureus [1], `C/C=C/[C@@H]1C=C[C@@H]2C[C@@H](C)CC[C@@H]2[C@]1(C)C(=O)C1=C(O)C(C(C)O)N(C)C1=O` (some centres undefined) [CISSETIN] came in with an MIC of 10 µM (≈ 3.88 µg/mL).

Regarding `C/C=C/[C@H]1C(C)=C[C@H]2C[C@H](C)[C@H](O)C[C@H]2[C@]1(C)/C=C(C)/C=C/C(=O)O` [PANNOMYCIN], the outcome with Escherichia coli, in the assay on Streptococcus pneumoniae, in the assay with Haemophilus influenzae and with Candida albicans was inactive. Further, the MIC against Staphylococcus aureus [2] worked out at 1400 µM (≈ 482 µg/mL); in the assay with Bacillus subtilis it was 400 µM (≈ 138 µg/mL); in the assay with Enterococcus faecalis, 1400 µM (≈ 482 µg/mL).
